Results reported in ChEMBL document CHEMBL5500342, “Rational molecular design converting fascaplysin derivatives to potent broad-spectrum inhibitors against bacterial pathogens via targeting FtsZ” (Eur J Med Chem, 2024).
Active and inactive are the calls of the source. The rule behind the calls is not given here.

How the values were obtained:
[1] = test system: Staphylococcus aureus; assay: Antibacterial activity against methicillin-resistant Staphylococcus aureus ATCC43300 assessed as inhibition of bacterial growth incubated for 18 hrs by CLSI protocol based microbroth dilution method; format: functional
[2] = test system: Streptococcus pneumoniae; assay: Antibacterial activity against Streptococcus pneumoniae ATCC49619 assessed as inhibition of bacterial growth incubated for 18 hrs by CLSI protocol based microbroth dilution method; format: functional
[3] = test system: Escherichia coli; assay: Antibacterial activity against penicillin-susceptible Escherichia coli ATCC25922 assessed as inhibition of bacterial growth incubated for 18 hrs by CLSI protocol based microbroth dilution method; format: functional
[4] = test system: Salmonella enteritidis; assay: Antibacterial activity against Salmonella enteritidis BNCC281091 assessed as inhibition of bacterial growth incubated for 18 hrs by CLSI protocol based microbroth dilution method; format: functional, Salmonella enterica subsp. enterica serovar Enteritidis; conditions: Salmonella enterica
[5] = test system: Escherichia coli; assay: Bactericidal activity against penicillin-susceptible Escherichia coli ATCC25922 incubated for 24 hrs by CLSI protocol based microbroth dilution method; format: functional
[6] = test system: Staphylococcus aureus; assay: Selectivity ratio of MBC for bactericidal activity against methicillin-resistant Staphylococcus aureus ATCC43300 to MIC for antibacterial activity against methicillin-resistant Staphylococcus aureus ATCC43300; format: functional
[7] = Selectivity ratio of MBC for bactericidal activity against penicillin-susceptible Escherichia coli ATCC25922 to MIC for antibacterial activity against penicillin-susceptible Escherichia coli ATCC25922; format: functional
[8] = test system: Staphylococcus aureus; assay: Antibacterial activity against methicillin-resistant Staphylococcus aureus ATCC43300 assessed as reduction in bacterial count at 2 times of MIC incubated for 24 hrs by time kill kinetics assay; format: functional, organism-based
[9] = test system: Staphylococcus aureus; assay: Antibacterial activity against methicillin-resistant Staphylococcus aureus ATCC43300 assessed as reduction in bacterial count at 4 times of MIC incubated for 24 hrs by time kill kinetics assay; format: functional, organism-based
[10] = test system: Staphylococcus aureus; assay: Antibacterial activity against methicillin-resistant Staphylococcus aureus ATCC43300 at assessed as reduction in bacterial growth at 0.5 times of MIC incubated for 18 to 24 hrs and measured after 25 passages by drug resistance assay; format: functional, organism-based
[11] = test system: Cell membrane; assay: Disruption of cell membrane integrity in methicillin-resistant Staphylococcus aureus ATCC43300 assessed as morphological deformation at 4 times of MIC incubated for 2 hrs by transmission electron microscopic analysis; format: cell membranes
[12] = test system: Cell membrane; assay: Disruption of cell membrane integrity in methicillin-resistant Staphylococcus aureus ATCC43300 assessed as appearance of striated structures at 4 times of MIC incubated for 2 hrs by scanning electron microscopic analysis; format: cell membranes
[13] = test system: Cell membrane; assay: Disruption of cell membrane integrity in methicillin-resistant Staphylococcus aureus ATCC43300 assessed as appearance of sunken fine microstructures at 4 times of MIC incubated for 2 hrs by scanning electron microscopic analysis; format: cell membranes
[14] = test system: Staphylococcus aureus; assay: Induction of morphological changes in methicillin-resistant Staphylococcus aureus ATCC43300 assessed as swelling at 0.5 times of MIC incubated for 4 hrs by optical microscopic analysis; format: functional, organism-based
[15] = target: T1, Cell division protein FtsZ (Staphylococcus aureus) (UniProt P0A031); assay: Induction of recombinant FtsZ polymerization in methicillin-resistant Staphylococcus aureus ATCC43300 assessed as bundling of FtsZ protofilaments at 1 to 4 microg/ml measured within 5 mins by light scattering assay; conditions: filed as activator, dose 1-4 µg/ml
T1 sequence (whole entry): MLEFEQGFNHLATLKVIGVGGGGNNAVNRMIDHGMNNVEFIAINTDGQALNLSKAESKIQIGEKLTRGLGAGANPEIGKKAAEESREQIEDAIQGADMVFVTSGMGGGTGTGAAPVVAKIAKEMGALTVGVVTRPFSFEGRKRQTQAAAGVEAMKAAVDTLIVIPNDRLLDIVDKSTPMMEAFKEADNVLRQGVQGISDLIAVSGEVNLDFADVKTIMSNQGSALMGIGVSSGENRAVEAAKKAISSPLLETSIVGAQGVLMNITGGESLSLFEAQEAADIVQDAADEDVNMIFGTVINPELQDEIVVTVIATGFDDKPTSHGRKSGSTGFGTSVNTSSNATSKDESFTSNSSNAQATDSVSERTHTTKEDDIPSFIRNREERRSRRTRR

[16] = target: T1, Cell division protein FtsZ (Staphylococcus aureus); assay: Induction of recombinant FtsZ polymerization in methicillin-resistant Staphylococcus aureus ATCC43300 assessed as bundling of FtsZ protofilaments by measuring fold increase in maximal intensity at 4 microg/ml measured after 10 mins by light scattering assay; conditions: filed as activator, dose 4.0 µg/ml
[17] = target: T2, Cell division protein FtsZ (Escherichia coli K-12) (UniProt P0A9A6); assay: Induction of recombinant FtsZ polymerization in penicillin-susceptible Escherichia coli ATCC25922 assessed as stabilization of FtsZ polymers at 1 to 4 microg/ml incubated for 10 mins by light scattering assay; conditions: filed as activator, dose 1-4 µg/ml
T2 sequence (whole entry): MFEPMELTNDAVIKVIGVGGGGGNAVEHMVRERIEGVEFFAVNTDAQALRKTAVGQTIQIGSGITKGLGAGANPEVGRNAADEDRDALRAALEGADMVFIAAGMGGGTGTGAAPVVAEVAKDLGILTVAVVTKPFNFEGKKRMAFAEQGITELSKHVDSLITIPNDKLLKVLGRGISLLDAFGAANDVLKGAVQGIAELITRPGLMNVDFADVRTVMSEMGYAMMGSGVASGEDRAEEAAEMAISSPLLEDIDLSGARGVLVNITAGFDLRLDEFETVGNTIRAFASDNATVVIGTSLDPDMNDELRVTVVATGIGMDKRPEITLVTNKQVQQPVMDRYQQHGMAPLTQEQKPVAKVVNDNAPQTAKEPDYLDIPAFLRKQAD

[18] = target: T1, Cell division protein FtsZ (Staphylococcus aureus); assay: Induction of FtsZ polymerization in methicillin-resistant Staphylococcus aureus ATCC43300 assessed as increase in size of assembly at 4 microg/ml preincubated for 10 mins followed by GTP addition and measured after 15 mins by transmission electron microscopic analysis; conditions: filed as activator, dose 4.0 µg/ml, time 25.0 min
[19] = target: T1, Cell division protein FtsZ (Staphylococcus aureus); assay: Induction of FtsZ polymerization in methicillin-resistant Staphylococcus aureus ATCC43300 assessed as increase in thickness of assembly at 4 microg/ml preincubated for 10 mins followed by GTP addition and measured after 15 mins by transmission electron microscopic analysis; conditions: filed as activator, dose 4.0 µg/ml, time 25.0 min
[20] = target: T2, Cell division protein FtsZ (Escherichia coli K-12); assay: Induction of FtsZ polymerization in penicillin-susceptible Escherichia coli ATCC25922 assessed as bundling of FtsZ protofilaments at 4 microg/ml preincubated for 10 mins followed by GTP addition and measured after 15 mins by transmission electron microscopic analysis; conditions: filed as activator, dose 4.0 µg/ml, time 25.0 min
[21] = target: T2, Cell division protein FtsZ (Escherichia coli K-12); assay: Induction of FtsZ polymerization in penicillin-susceptible Escherichia coli ATCC25922 assessed as larger bundles at 4 microg/ml preincubated for 10 mins followed by GTP addition and measured after 15 mins by transmission electron microscopic analysis; conditions: filed as activator, dose 4.0 µg/ml, time 25.0 min
[22] = target: T2, Cell division protein FtsZ (Escherichia coli K-12); assay: Induction of FtsZ polymerization in penicillin-susceptible Escherichia coli ATCC25922 assessed as thicker bundles at 4 microg/ml preincubated for 10 mins followed by GTP addition and measured after 15 mins by transmission electron microscopic analysis; conditions: filed as activator, dose 4.0 µg/ml, time 25.0 min
[23] = target: T1, Cell division protein FtsZ (Staphylococcus aureus); assay: Effect on FtsZ GTPase activity in methicillin-resistant Staphylococcus aureus ATCC43300 upto 8 microg/ml incubated for 30 mins by malachite green phosphate based assay; conditions: dose <= 8.0 µg/ml
[24] = target: T2, Cell division protein FtsZ (Escherichia coli K-12); assay: Enhancement of FtsZ GTPase activity in penicillin-susceptible Escherichia coli ATCC25922 upto 8 microg/ml incubated for 30 mins by malachite green phosphate based assay relative to control; conditions: dose <= 8.0 µg/ml

| Compound | MIC [1] [µg/mL] | MIC [2] [µg/mL] | MIC [3] [µg/mL] | MIC [4] [µg/mL] | MBC [5] [µg/mL] | Selectivity ratio [6] | Selectivity ratio [7] | Activity [8] | Activity [9] | Activity [10] | Activity [11] | Activity [12] | Activity [13] | Activity [14] | Activity [15] | fold change (FC) [16] | Activity [17] | Activity [18] | Activity [19] | Activity [20] | other results |
| --- | --- | --- | --- | --- | --- | --- | --- | --- | --- | --- | --- | --- | --- | --- | --- | --- | --- | --- | --- | --- | --- |
| O=C1c2ccccc2-[n+]2ccc3c([nH]c4ccc(-c5ccccc5F)cc43)c21.[Cl-] | 0.195 | 0.195 | 6.25 | 12.5 | 6.25 | 1 | 1 | Active | Active | Active | Active | Active | Active | Active | Active | 2 | Active | Active | Active | Active | Activity [21]: Active; Activity [22]: Active; Activity [23]: inactive; Activity [24]: 10% |
| O=C1c2ccccc2-[n+]2ccc3c([nH]c4ccc(-c5ccccc5C(F)(F)F)cc43)c21.[Cl-] | 1.56 | 0.195 | 12.5 | 12.5 | 50 | 1 | 4 | Active | Active | Active | Active | Active | Active | Active | Active | 2 | Active | Active | Active | Active | Activity [21]: Active; Activity [22]: Active; Activity [23]: inactive; Activity [24]: 10% |
| O=C1c2ccccc2-[n+]2ccc3c([nH]c4ccc(-c5ccccc5Cl)cc43)c21.[Cl-] | 1.56 | 0.195 | 12.5 | 50 | 50 | 1 | 4 | Active | Active | Active | Active | Active | Active | Active | Active | 2 | Active | Active | Active | Active | Activity [21]: Active; Activity [22]: Active; Activity [23]: inactive; Activity [24]: 10% |
